According to PMC6270420, “Antibacterial Activity of Salicylanilide 4-(Trifluoromethyl)benzoates” (Molecules, 2013):
pIC50: −log10 of the molar value. Where two headings read alike, the source gives them in different places.

Test system: HepG2 cells
Experiment: Cytotoxicity evaluation (CellTiter 96 MTS)
Assay type: cell-based, human
Conditions: read-out: IC50 HepG2
Experimental: Seven esters and their parent salicylanilides with the most robust antimicrobial activity were tested for cytotoxicity in the human hepatocellular liver carcinoma cell line HepG2 (passages 21–24; ECACC, Salisbury, UK) using a standard colorimetric method measuring a tetrazolium salt reduction (CellTiter(R) 96 AQueous One Solution Assay, Promega G3580, Madison, WI, USA).
The cells were routinely cultured in Minimum Essentials Eagle Medium (Sigma-Aldrich, Darmstadt, Germany) supplemented with 10% foetal bovine serum (PAA; Biotech, Prague, Czech Republic), 1% of L-glutamine solution (Sigma-Aldrich), and non-essential amino acids solution (Sigma-Aldrich) in a humidified atmosphere containing 5% CO2 at 37 °C. For subculturing, the cells were harvested after trypsin/EDTA (Sigma-Aldrich) treatment at 37 °C. The cells treated with the tested substances were used as experimental groups. Untreated HepG2 cells were used as control groups.
The cells were seeded in density 1 × 10^4 cells per well in a 96-well plate with microscopic control. Next day, the cells were treated with each of the tested substances. […] The most of the tested compounds were prepared in incubation concentrations of 0.01–20 µM in triplicates. 4-(Trifluoromethyl)benzoic acid was applied in the concentrations of 10–4,000 µM in triplicates. The following types of controls were included: determination of 100% viability and 0% viability (the cells treated by 10% DMSO), no cell control and vehiculum controls. These checking samples were prepared in triplicates.
The treated cells were incubated together with controls at 37 °C for 24 h in 5% CO2 atmosphere. After this time reagent from the kit CellTiter 96 AQueous One Solution Cell Proliferation Assay was added. The CellTiter 96 assay is based on the reduction of tetrazolium salt MTS [3-(4,5-dimethylthiazol-2-yl)-5-(3-carboxymethoxyphenyl)-2-(4-sulfophenyl)-2H-tetrazolium] to water-soluble formazan dye by metabolically active cells. The reduction of the reagent is attributed to availability of NADH or NADPH. The decline in levels of these metabolically important compounds in the cell causes that the production of formazan is reduced. The tested plate was incubated for 2 h at 37 °C and 5% CO2 and after this time, the absorbance was recorded at 490 nm using a 96-well plate reader (TECAN, Infinite M200, Grödig, Austria).
The results were expressed as inhibitory concentration which is necessary to inhibit cell viability to 50% from the maximal (control) viability (IC50). A standard toxicological parameter IC50 was calculated in each of the tested substances using GraphPad Prism software (version 5.02; GraphPad Software Inc., San Diego, CA, USA).

Row | SMILES | pIC50 (24 h, cytotoxicity) | further results
1 | O=C(Nc1ccc(Cl)c(Cl)c1)c1ccc(Cl)cc1O [SAL-2] | 5.74 | 
2 | O=C(Nc1cccc(Br)c1)c1cc(Cl)ccc1O [SAL-3] | 5.81 | 
3 | O=C(Nc1ccc(Br)cc1)c1ccc(Cl)cc1O [SAL-4] | 5.70 | 
4 | O=C(Nc1ccc(C(F)(F)F)cc1)c1cc(Cl)ccc1O [SAL-5, 5-chloro-2-hydroxy-N-[4-(trifluoromethyl)phenyl]benzamide] |  | pIC50 (Homo sapiens, HepG2, 24 h, cytotoxicity): 6.44
5 | O=C(Nc1ccc(C(F)(F)F)cc1)c1ccc(Cl)cc1O [SAL-6] | 6.16 | 
6 | O=C(Nc1ccc(C(F)(F)F)cc1)c1cc(Br)ccc1O [SAL-7, 5-Bromo-2-hydroxy-N-[4-(trifluoromethyl)phenyl]benzamide] |  | pIC50 (Homo sapiens, HepG2, 24 h): 5.78
